Read-outs that look alike come from different tables or passages of the source.
What was measured:
[1] = in vitro; settings: human
[2] = test system: Plasmodium falciparum Dd2 asexual blood stage parasites; assay: microbe, parasite or virus in culture; design: species or system Plasmodium falciparum Dd2 in human erythrocytes; single determination (one 11-point concentration-response curve); settings: 72 h
[3] = HepG2-A16-CD81EGFP cells, uninfected
[4] = Plasmodium falciparum, DD2, Erythrocyte, read-out: AC50

CCOC(=O)c1c(CNc2ccncc2)n(C)c2cc(Br)c(O)cc12 [MLS000714612-01]
viability at 48 h, 1 µM [1, 3]: 90%
viability at 48 h, 3 µM [1, 3]: 86%
AC50 [2, 4]: 2660 nM

O=C(c1cnn2c(C(F)F)cc(-c3ccccc3)nc12)N1CCCCC1c1cccnc1 (stereo not drawn) [MLS000728797-01]
viability at 48 h [1, 3]: 102%
viability at 48 h, 1 µM [1, 3]: 102%
AC50 [2, 4]: 8410 nM

CC(C)N1C(=S)N(Cc2ccco2)C(=O)C1CC(=O)Nc1ccccc1 (stereo not drawn) [MLS000729199-01]
viability at 48 h, 1 µM [1, 3]: 99%
viability at 48 h, 3 µM [1, 3]: 109%
AC50 [2, 4]: 1680 nM

COc1ccc(C(C(=O)Nc2ccc(C(C)C)cc2)N(Cc2ccco2)C(=O)CC2NC(=O)NC2=O)cc1 (stereo not drawn) [MLS000729756-01]
viability at 48 h, 1 µM [1, 3]: 99%
viability at 48 h, 3 µM [1, 3]: 94%
AC50 [2, 4]: 6680 nM

O=C(Nc1ccc(C2=NCCN2)cc1)c1ccc(C(=O)Nc2ccc(C3=NCCN3)cc2)c([N+](=O)[O-])c1 [MLS000737369-01]
viability at 48 h, 1 µM [1, 3]: 94%
viability at 48 h, 3 µM [1, 3]: 85%
AC50 [2, 4]: 237 nM

CCN1CCC(Nc2ccnc3cc(Cl)ccc23)CC1 [MLS000737411-01]
viability at 48 h, 1 µM [1, 3]: 99%
viability at 48 h, 3 µM [1, 3]: 100%
AC50 [2, 4]: 188 nM

Oc1ccc(Nc2ccnc3cc(Cl)ccc23)cc1 [MLS000737975-01]
viability at 66 h [1, 3]: 96.9%
AC50 [2, 4]: 1680 nM

O=C1C=C(O)C=CC1=CNNc1ccnc2cc(Cl)ccc12 [MLS000759655-01]
viability at 48 h [1, 3]: 101%
viability at 48 h, 1 µM [1, 3]: 101%
AC50 [2, 4]: 596 nM

O=C(O)c1ccc(N/N=C/c2cn(-c3ccccc3)nc2-c2cccs2)cc1 [MLS000759699-01]
viability at 48 h, 1 µM [1, 3]: 112%
viability at 48 h, 3 µM [1, 3]: 103%
AC50 [2, 4]: 2660 nM

COc1ccc2ccc(O)c(CN3CC=C(c4ccccc4)CC3)c2c1 [MLS000760157-01]
viability at 48 h, 1 µM [1]: 107%
viability at 48 h, 3 µM [1]: 101%
AC50 [2, 4]: 8410 nM

O=S(=O)(c1ccc2ccccc2c1)N1CCN(/C(S)=N/c2ccccc2F)CC1 [MLS000760214-01]
viability at 48 h, 1 µM [1, 3]: 103%
viability at 48 h, 3 µM [1, 3]: 102%
AC50 [2, 4]: 4220 nM

CCCCNc1nc2sc3c(c2c(=O)n1-c1cccc(Cl)c1)CCN(C)C3 [MLS000762857-01]
viability at 48 h [1, 3]: 106%
viability at 48 h, 1 µM [1, 3]: 106%
AC50 [2, 4]: 9440 nM

COc1ccc(-c2csc3ncnc(Cl)c23)cc1 [MLS000765103-01]
viability at 48 h, 1 µM [1, 3]: 86%
viability at 48 h, 3 µM [1, 3]: 86%
AC50 [2, 4]: 4220 nM

Nc1cc2ccncc2c2ccccc12 [MLS000766157-01]
viability at 48 h, 1 µM [1, 3]: 98%
viability at 48 h, 3 µM [1, 3]: 92%
AC50 [2, 4]: 266 nM

O=C(Nc1cccc(-c2nc3ccccc3[nH]2)c1)c1ccc(C(=O)Nc2cccc(-c3nc4ccccc4[nH]3)c2)cc1 [MLS000766212-01]
viability at 48 h, 1 µM [1, 3]: 105%
viability at 48 h, 3 µM [1, 3]: 96%
AC50 [2, 4]: 2660 nM

CCC1(OC(=O)CN)C(=O)OCc2c1cc1n(c2=O)Cc2cc3ccccc3nc2-1 (stereo not drawn) [MLS000766263-01]
viability [1]: 24.7%
AC50 ([2]; Plasmodium falciparum, DD2, Erythrocyte): 6680 nM

O=C1/C(=C/Nc2cccc(S(=O)(=O)NC3=NCCCCC3)c2)c2ccccc2C(=O)N1Cc1ccccc1 [MLS000775273-01]
viability at 66 h [1, 3]: 93.2%
AC50 [2, 4]: 13300 nM

CC(C)CCNC(=O)c1cc(C(=O)c2cc(Br)ccc2O)cn(CCC(C)C)c1=O [MLS000775608-01]
viability at 66 h [1]: 105%
AC50 [2, 4]: 944 nM

C=C(C)CSc1nc2sc3c(c2c(=O)n1C1CCCCC1)CCN(C)C3 [MLS000779440-01]
viability at 48 h, 1 µM [1, 3]: 98%
viability at 48 h, 3 µM [1, 3]: 91%
AC50 [2, 4]: 2370 nM

Cn1nc(C(F)(F)F)c(-c2cccc(C(F)(F)F)c2)c1NC(=O)Nc1ccc(F)cc1 [MLS000830770-01]
viability at 48 h, 1 µM [1, 3]: 98%
viability at 48 h, 3 µM [1, 3]: 103%
AC50 [2, 4]: 2370 nM

CC(NCc1ccccc1)c1ccccc1O (stereo not drawn) [MLS000850790-01]
viability at 66 h [1, 3]: 96.3%
AC50 [2, 4]: 5310 nM

C=CC1CN2CCC1CC2C(OC(C)=O)c1ccnc2ccc(OC)cc12 (stereo not drawn) [MLS000851200-01]
viability at 66 h [1]: 99.9%
AC50 [2, 4]: 1680 nM

COC(=O)c1c(-c2c(Cl)cccc2Cl)noc1NC(=O)NN1CCCCC1 [MLS000861266-01]
viability at 48 h, 1 µM [1, 3]: 93%
viability at 48 h, 3 µM [1, 3]: 87%
AC50 [2, 4]: 2370 nM

Oc1ccc(C2NCc3ccccc3-n3cccc32)cc1Cl (stereo not drawn) [MLS000878874-01]
viability at 66 h [1]: 108%
AC50 ([2]; read-out: AC50): 1190 nM

COc1cc(O)c(C(CCN2CCCC(C)C2)c2cc(OC)c(OC)c(OC)c2)c(OC)c1 (stereo not drawn) [MLS000879467-01]
viability at 48 h, 1 µM [1, 3]: 90%
viability at 48 h, 3 µM [1, 3]: 88%
AC50 [2, 4]: 1880 nM

COc1ccc(C(CCN2CCCCC2)c2c(O)cc(OC)cc2OC)cc1 (stereo not drawn) [MLS000879486-01]
viability at 48 h, 1 µM [1, 3]: 90%
viability at 48 h, 3 µM [1, 3]: 85%
AC50 [2, 4]: 1330 nM

CCN(CC)CCC(c1ccc(OC)cc1)c1c(O)cc(OC)cc1OC (stereo not drawn) [MLS000879488-01]
viability at 66 h [1, 3]: 99.6%
AC50 [2, 4]: 6680 nM

CCN(CC)CCC(c1ccc2c(c1)OCO2)c1c(O)cc(OC)cc1OC (stereo not drawn) [MLS000879498-01]
viability at 66 h [1, 3]: 103%
AC50 [2, 4]: 4220 nM

Reference: PMC7822874, “Chemoprotective antimalarials identified through quantitative high-throughput screening of Plasmodium blood and liver stage parasites” (Scientific Reports, 2021)
